# Results as given in publication PMC9976286, “Combination of In Silico and In Vitro Screening to Identify Novel Glutamate Carboxypeptidase II Inhibitors” (Journal of Chemical Information and Modeling, 2023).
# Values joined by “and” are separate entries in the source; they are usually repeats but may differ in a detail not shown here. Equal entries are not always repeated. Where two headings read alike, the source gives them in different places.
# Key:
# GCPII = details: cited from earlier work; for Ki: read-out: Ki[nM] (54 actives, PDB ID)
# Recombinant human HDAC10 = target: T1, Recombinant human HDAC10 (Homo sapiens, UniProt Q969S8); assay: Inhibitor specificity: fluorescence-based HDAC10 activity assay; format: biochemical; details: for HDAC10 inhibition (in words): off-target specificity
# T1 construct: made in house
# T1 sequence (Q969S8 1-669): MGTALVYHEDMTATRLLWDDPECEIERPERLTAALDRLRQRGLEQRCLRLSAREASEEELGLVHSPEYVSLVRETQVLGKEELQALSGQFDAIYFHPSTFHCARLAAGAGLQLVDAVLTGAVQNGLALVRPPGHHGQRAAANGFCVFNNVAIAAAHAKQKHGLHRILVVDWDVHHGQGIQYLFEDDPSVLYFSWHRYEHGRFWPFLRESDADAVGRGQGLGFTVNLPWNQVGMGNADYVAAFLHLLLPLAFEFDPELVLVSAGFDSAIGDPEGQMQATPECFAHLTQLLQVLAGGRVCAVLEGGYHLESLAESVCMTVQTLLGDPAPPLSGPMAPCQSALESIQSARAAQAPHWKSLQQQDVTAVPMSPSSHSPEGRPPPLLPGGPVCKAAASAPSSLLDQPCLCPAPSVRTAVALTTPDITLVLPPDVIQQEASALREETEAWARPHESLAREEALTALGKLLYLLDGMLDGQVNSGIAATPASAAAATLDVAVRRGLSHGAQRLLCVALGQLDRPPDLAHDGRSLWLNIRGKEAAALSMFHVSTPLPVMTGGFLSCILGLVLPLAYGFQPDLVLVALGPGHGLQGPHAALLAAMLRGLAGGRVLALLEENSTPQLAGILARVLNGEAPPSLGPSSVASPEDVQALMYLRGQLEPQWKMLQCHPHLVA
# Method: The fluorescence-based activity assay used was developed in-house. Recombinant human HDAC10 purified as described previously[43] (0.5 nM) was preincubated with dilution series of compounds in 50 mM 4-(2-hydroxyethyl)-1-piperazineethanesulfonic acid (HEPES), 140 mM NaCl, 10 mM KCl, 2 mg/mL bovine serum albumin (BSA), and 1 mM tris(2-carboxyethyl) phosphine, pH 7.4 at 37 °C for 10 min. The reaction was initiated by the addition of a 10 μM substrate (spermidine labeled with fluorescein, provided by the group of Prof. Mike Schutkowski)[43] in a total volume of 50 μL. Following 30-min incubation, the reaction was terminated by the addition of 5 μL of 0.5% acetic acid and centrifuged at 2000g at room temperature for 15 min to remove precipitated BSA. […] The HDAC10 inhibition was calculated using the noninhibited reaction as a control. Inhibition constants of the compounds were determined using increasing concentrations of inhibitors. The data were fitted using the GraphPad Prism software,[44] and IC50 values were calculated from the inhibition curves of two independent experiments using a nonlinear analysis protocol.
# Recombinant human GCPII [1] = target: T2, Recombinant human GCPII (Homo sapiens, UniProt Q04609); assay: GCPII IC50 with substrate concentration 10x above KM (mode of inhibition); format: biochemical; details: for Increase of GCPII IC50 at 10x KM substrate versus KM: IC50 at 1 μM substrate relative to IC50 at 100 nM substrate; for IC50: substrate concentration 10 times above KM (1 μM)
# T2 construct: made in house
# T2 sequence (Q04609 whole entry): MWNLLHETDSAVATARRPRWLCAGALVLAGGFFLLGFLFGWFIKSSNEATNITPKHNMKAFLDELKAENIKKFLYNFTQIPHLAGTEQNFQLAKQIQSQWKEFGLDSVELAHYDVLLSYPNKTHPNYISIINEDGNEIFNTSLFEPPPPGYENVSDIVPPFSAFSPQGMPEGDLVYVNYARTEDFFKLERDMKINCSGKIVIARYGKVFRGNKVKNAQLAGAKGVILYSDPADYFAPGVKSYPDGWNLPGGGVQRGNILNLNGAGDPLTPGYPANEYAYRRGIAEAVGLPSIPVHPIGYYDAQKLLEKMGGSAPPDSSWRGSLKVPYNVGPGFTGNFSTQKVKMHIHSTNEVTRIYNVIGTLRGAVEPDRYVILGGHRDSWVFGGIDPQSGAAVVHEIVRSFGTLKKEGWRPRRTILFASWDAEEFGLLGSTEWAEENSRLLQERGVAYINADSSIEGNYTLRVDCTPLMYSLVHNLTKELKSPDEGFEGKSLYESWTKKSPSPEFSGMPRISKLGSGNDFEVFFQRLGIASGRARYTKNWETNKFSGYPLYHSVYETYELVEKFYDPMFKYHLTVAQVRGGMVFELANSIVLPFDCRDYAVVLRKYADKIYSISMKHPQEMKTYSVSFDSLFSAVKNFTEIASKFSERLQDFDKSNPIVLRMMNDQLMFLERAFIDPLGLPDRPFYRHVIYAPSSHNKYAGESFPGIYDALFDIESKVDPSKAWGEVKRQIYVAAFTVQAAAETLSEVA
# Method: The inhibitory potency of the selected compounds against GCPII was determined using a fluorescence-based assay developed in-house. Recombinant human GCPII purified as described previously[40],[41] (final concentration 0.02 nM) was preincubated with 20 μM test compound for the screening in 50 mM Tris-HCl, 150 mM NaCl, 0.001% C12E8 at 37 °C for 10 min. […] Following 15 min incubation, the reaction was terminated by the addition of 5 μL of 0.1% TFA in 5% acetonitrile. Reaction mixtures were then analyzed by RP-HPLC with a Kinetex 2.6 μm XB-C18 100 Å column with a fluorescence detector set to λEX/λEM = 492/516. The GCPII inhibition in the SPECS hits samples was calculated using the noninhibited reaction as a control. Inhibition constants of the compounds active in the in vitro screening were determined using increasing concentrations of inhibitors. The data were fitted using the GraphPad Prism software, and IC50 values were calculated from the inhibition curves of two independent experiments using a nonlinear analysis protocol.
# Recombinant human GCPII [2] = target: T2, Recombinant human GCPII; assay: In vitro GCPII inhibition assay, fluorescence-based, RP-HPLC readout (screening at 20 μM and IC50); format: biochemical; details: for IC50: substrate concentration at KM (100 nM Glu-Glu dipeptide labeled with fluorescein)
# Method: The inhibitory potency of the selected compounds against GCPII was determined using a fluorescence-based assay developed in-house. Recombinant human GCPII purified as described previously[40],[41] (final concentration 0.02 nM) was preincubated with 20 μM test compound for the screening in 50 mM Tris-HCl, 150 mM NaCl, 0.001% C12E8 at 37 °C for 10 min. The reaction was initiated by the addition of 100 nM Glu-Glu dipeptide labeled with fluorescein (substrate)[42] in a total volume of 50 μL. Following 15 min incubation, the reaction was terminated by the addition of 5 μL of 0.1% TFA in 5% acetonitrile. […] The data were fitted using the GraphPad Prism software, and IC50 values were calculated from the inhibition curves of two independent experiments using a nonlinear analysis protocol.
# [3] = dataset of 54 GCPII ligands compiled from the PDB
# [4] = dataset of 54 GCPII ligands compiled from the PDB, read-out: IC50[nM] (54 actives, PDB ID)
# [5] = 10 μM fluorescein-labeled spermidine substrate, read-out: HDAC10 IC50
# [6] = read-out: GCPII IC50 at substrate concentration 10 times above the KM
structure (smiles),measurement,setting,value
O=C(N[C@@H](CCCCNC(=O)c1ccc(I)cc1)C(=O)O)N[C@@H](C[C@H]1CO1)C(=O)O [Compound 4OC1],Ki,GCPII; [3],254 nM
C#CC[C@H](NC(=O)N[C@@H](CCCCNC(=O)c1ccc(I)cc1)C(=O)O)C(=O)O [Compound 4OC2],Ki,GCPII; [3],5.3 nM
O=C(N[C@@H](CCCCNC(=O)c1ccc(I)cc1)C(=O)O)N[C@@H](Cc1ccco1)C(=O)O [Compound 4OC3],Ki,GCPII; [3],5.3 nM
O=C(N[C@@H](CCCCNC(=O)c1ccc(I)cc1)C(=O)O)N[C@@H](Cc1ccncc1)C(=O)O [Compound 4OC4],Ki,GCPII; [3],105 nM
O=C(N[C@@H](CCCCNC(=O)c1ccc(I)cc1)C(=O)O)N[C@H](C(=O)O)c1ccc(O)cc1 [Compound 4OC5],Ki,GCPII; [3],85 nM
O=C(O)CC[C@H](N[P@](=O)(O)OCCNC(=O)c1ccccc1)C(=O)O [Compound 4P4D],IC50,GCPII; [4],1800 nM
O=C(O)CC[C@H](N[P@](=O)(O)OCCCCc1ccccc1)C(=O)O [Compound 4P4E],IC50,GCPII; [4],180 nM
O=C(O)CC[C@H](N[P@](=O)(O)OCc1ccc(-c2ccccc2)cc1)C(=O)O [Compound 4P4F],IC50,GCPII; [4],168 nM
O=C(O)CC[C@H](N[P@](=O)(O)OC[C@H](NC(=O)c1ccccc1)C(=O)O)C(=O)O [Compound 4P4I],IC50,GCPII; [4],35 nM
O=C(O)CC[C@H](N[P@](=O)(O)OC[C@@H](NC(=O)c1ccccc1)C(=O)O)C(=O)O [Compound 4P4J],IC50,GCPII; [4],700 nM
CC[C@@H](C)[C@H](NC(=O)c1ccc(F)cc1)C(=O)N[C@@H](CO[P@@](=O)(O)N[C@@H](CCC(=O)O)C(=O)O)C(=O)O [Compound 4P44],IC50,GCPII; [4],16 nM
CC(C)[C@H](NC(=O)c1ccc(F)cc1)C(=O)N[C@@H](CO[P@@](=O)(O)N[C@@H](CCC(=O)O)C(=O)O)C(=O)O [Compound 4P45],IC50,GCPII; [4],16 nM
O=C(CC[C@@H](Cc1ccc(C(=O)O)cc1)C(=O)O)NO [Compound 5D29],IC50,GCPII; [4],97 nM
O=C(CC[C@H](Cc1ccc(C(=O)O)cc1)C(=O)O)NO [Compound 5ELY],IC50,GCPII; [4],44 nM
O=C(O)CC[C@H](NC(=O)N[C@@H](CCCC(=O)NCc1ccc(F)cc1)C(=O)O)C(=O)O [Compound 5OF0],IC50,GCPII; [4],2.32 nM
O=C(O)CC[C@H](NC(=O)N[C@@H](CCCC(=O)Nc1ccc(F)cc1)C(=O)O)C(=O)O [Compound 6H7Y],IC50,GCPII; [4],0.35 nM
CN(C(=O)CCC[C@H](NC(=O)N[C@@H](CCC(=O)O)C(=O)O)C(=O)O)c1ccc(F)nc1 [Compound 6H7Z],IC50,GCPII; [4],0.13 nM
O=C(O)CC[C@H](NC(=O)N[C@@H](CCCC(=O)Nc1ccc(F)nc1)C(=O)O)C(=O)O [Compound 6HKJ],IC50,GCPII; [4],0.99 nM
O=C(O)CSC1=C(SCC(=O)O)C(=O)C(SCC(=O)O)=C(SCC(=O)O)C1=O [Compound 17],IC50,Recombinant human HDAC10; [5],2210 nM and 2200 nM
same,Increase of GCPII IC50 at 10x KM substrate versus KM,Recombinant human GCPII [1],approximately twice
same,IC50,Recombinant human GCPII [1]; read-out: GCPII IC50 10x > KM,9390 nM
same,IC50,Recombinant human GCPII [1]; [6],9400 ± 100 nM
same,IC50,Recombinant human GCPII [2],4500 nM and 4510 nM
O=[N+]([O-])c1ccc(C(CCc2nnn[nH]2)(CCc2nnn[nH]2)c2nnn[nH]2)cc1 [Compound 18],IC50,Recombinant human HDAC10; [5],> 100000 nM
same,HDAC10 inhibition (in words),Recombinant human HDAC10,did not exhibit any HDAC10 inhibition
same,Increase of GCPII IC50 at 10x KM substrate versus KM,Recombinant human GCPII [1],approximately twice
same,IC50,Recombinant human GCPII [1]; read-out: GCPII IC50 10x > KM,27600 nM
same,IC50,Recombinant human GCPII [1]; [6],> 20000 nM
same,inhibition at 20 µM,"Recombinant human GCPII [2]; compound at 20 μM, 100 nM fluorescein-labeled Glu-Glu dipeptide substrate, read-out: Inhibition [%] of GCPII activity",> 50%
same,IC50,Recombinant human GCPII [2],15000 nM
O=C(O)c1ccccc1-c1c2ccc(=O)c(I)c-2oc2c(I)c(OS(=O)(=O)c3ccc(Br)cc3)ccc12 [Compound 46],IC50,"Recombinant human HDAC10; HDAC10 IC50, 10 μM fluorescein-labeled spermidine substrate",> 100000 nM
same,HDAC10 inhibition (in words),Recombinant human HDAC10,did not exhibit any HDAC10 inhibition
same,Increase of GCPII IC50 at 10x KM substrate versus KM,Recombinant human GCPII [1],4 fold
same,IC50,Recombinant human GCPII [1]; read-out: GCPII IC50 10x > KM,1350 nM
same,IC50,Recombinant human GCPII [1]; [6],1400 ± 100 nM
same,IC50,Recombinant human GCPII [2],353 ± 24 nM
O=C(O)CC[C@H](NC(=O)N[C@@H](CCCC(=O)N(CCNC(=O)c1ccc(F)nc1)c1ccccc1)C(=O)O)C(=O)O [RNA 2-49-1],IC50,GCPII; [4],0.075 nM
same,IC50,GCPII; read-out: GCPII IC50,0.08 nM
